# How the values were obtained:
# DNMT-1 = DNMT-1 transcription in H1703 lung cancer cells; type: cell-based, human; conditions: H1703 cells in vitro, dose-dependent (FIG. 10A)
# Source text: In FIG. 10A, AKB-6899 inhibited DNMT-1, DNMT-3a, and DNMT-3b transcription in a dose-dependent manner in human squamous cell carcinoma lung cancer cells (H1703), in vitro. The DMSO-treated DNMT mRNAs are over 1.0, meaning the level of expression is higher than the housekeeping control gene, CAP1. In FIG. 10B, AKB-6899 inhibited DNMT-3a and DNMT-3b transcription in human adenocarcinoma lung cancer cells (A549). The DMSO-treated DNMT mRNAs are under 1.0, meaning the level of expression is lower than the housekeeping control gene, CAP1.
# [1] = system: panel of 14 common tumor suppressor genes; assay: mRNA expression of 14 tumor suppressor genes in H1703 cells; type: cell-based, human
# Source text: (§1) FIGS. 12A-12D show the level of mRNA expression for a panel of 14 common tumor suppressor genes in two types of human lung cancer cells (i.e., H1703 squamous cell carcinoma in FIG. 12A and A549 adenocarcinoma in FIG. 12B). […] All of the tumor suppressor mRNAs were augmented in response to AKB-6899 but one, the CDKN1C gene in A549 adenocarcinoma cells, in which expression levels were 0.1 (AKB10) and 0.9 (AKB50) compared to DMSO standardized to 1.0. In FIGS. 12A-12B, the following apply: “1”=DMSO, “2”=AKB-6899 (10 μM), “3”=AKB-6899 (50 μM), and “4”=combination of Decitabine (5 μM)/PBA (2 mM). FIGS. 12C and 12D are raw values for mRNA expression of these 14 genes.
# [2] = system: 23 different gene promoters; assay: Percent methylation of 23 gene promoters in A549 adenocarcinoma; type: cell-based, human; conditions: A549, 10 μM and 50 μM, compared to DMSO
# Procedure: FIGS. 11A-11D show the percent methylation for 23 different gene promoters in two types of human lung cancer cells—FIGS. 11A and 11B are directed at H1703 squamous cell carcinoma and FIG. 11C and FIG. 11D are directed at A549 adenocarcinoma. DMSO was used as a vehicle and was used as a control. […] The Dec/PBA condition represents a combination of 5 μM Decitabine (5-aza-2′deoxycytidine (5-AZA), which is a demethylating agent) and 2 mM […] (PBA, HDAC inhibitor). In all promoters tested, and in both types of lung cancer, AKB-6899 demethylated the gene promoters such that the level of % DNA methylation following AKB-6899 treatment was below the level of % DNA methylation of the DMSO-treated control cells (DMSO).
# DNMT-3a = DNMT-3a mRNA expression in lungs of normal mice after systemic administration; type: in vivo, mouse; conditions: i.p. 17.5 mg/kg three times per week for three weeks, vs DMSO
# Procedure: (§2) FIGS. 14A-14C show the effects of systemic administration of AKB-6899. Mice were treated three times per week for three weeks with either i.p. AKB-6899 or i.p. DMSO. The lungs were removed and assayed to determine DNMT mRNA expression, percent CpG methylation, and fold change in mRNA. […] The data was standardized to 1.0 by the DMSO levels of the respective gene expression, (n=4 lungs per condition).
# PyMT tumor cells = assay: Trypan Blue cell death check in PyMT tumor cells; type: cell-based; conditions: compared to control cells
# Procedure: (§3) Because DSP is regulated by ER/PR expression, and because late-stage PyMT tumors lose ER/PR-positivity and heavily metastasize to the lymph nodes and lungs (Lin et al., 2003), the effects of AKB-6899 on more global events that regulate gene expression was evaluated. PyMT tumor cells in culture were treated with DMSO or AKB-6899. Methylation-specific PCR for CpG islands in the desmoplakin promoter were performed. […] Trypan Blue confirmed no cell death in AKB-6899 treated cells when compared to control cells. The experiment was repeated and RNA was isolated from the cells. RT-PCR was performed and the regulation of DNA methyltransferases (DNMTs) was evaluated. […] (FIG. 1A). The decrease in mRNA levels of DNMT-1 and DNMT-3a increased the mRNA level of DSP (FIG. 4A) and increased desmoplakin protein expression (FIG. 5A).
# c-Myc promoter [3] = assay: Percent CpG methylation of c-Myc promoter in HeLa cells; type: cell-based, human; conditions: 5 or 25 μM, compared to DMSO and PBA (FIG. 6A)
# Procedure: HeLa cervical cancer cells were left untreated, were treated with DMSO, were treated with 5-AZA, were treated with AKB-6899 (5 or 25 μM), or were treated with PBA (2 mM).
# DNMT-3b = DNMT-3b mRNA level by RT-PCR in PyMT tumor cells; type: cell-based, mouse; conditions: PyMT tumor cells in culture
# Procedure: as §3
# c-Myc promoter [4] = assay: Percent DNA methylation of c-Myc promoter in human cervical tumors in animals; type: in vivo; conditions: animal models of human cervical tumors, 17.5 mg/kg (FIG. 7A)
# Procedure: Animal models of human cervical tumors were untreated, treated with DMSO, treated with 5-AZA or treated with AKB-6899 (17.5 mg/kg).
# BEAS-2B cells = assay: XTT cell survival assay, normal lung epithelial cells; type: cell-based; conditions: BEAS-2B normal lung epithelial cells, even at the highest dose (FIG. 13A)
# Source text: FIGS. 13A-13B show XTT cell survival assays for normal lung epithelial cells (BEAS-2B) and lung cancer cells (H1703 squamous cell carcinoma and A549 adenocarcinoma) in response to increasing doses of AKB-6899.
# RASSF1 promoter = assay: CpG methylation of RASSF1 promoter in lungs of normal mice; type: in vivo, mouse; conditions: i.p., three weeks (FIG. 14B)
# Procedure: as §2
# [5] = system: panel of 14 common tumor suppressor genes; assay: mRNA expression of 14 tumor suppressor genes in A549 cells; type: cell-based, human; conditions: for CDKN1C mRNA expression level: DMSO standardized to 1.0
# Source text: as §1
structure (smiles),measurement,setting,value
"O=C(O)CNC(=O)c1ncc(-c2cccc(F)c2)cc1O [AKB-6899, {[5-(3-Fluorophenyl)-3-hydroxypyridine-2-carbonyl]amino}acetic acid]",DNMT-1 transcription,DNMT-1,inhibited
same,tumor suppressor mRNA expression,"[1]; H1703, 10 μM and 50 μM, vs DMSO",augmented
same,induction of mRNA expression in H1703 compared with A549,"[1]; H1703 vs A549, Decitabine 5 μM/PBA 2 mM",more effective
same,percent DNA methylation of 23 gene promoters,[2],decreased the percent of DNA methylation in a dose response fashion
same,DNMT-3a expression in lungs,DNMT-3a,inhibited
same,cell death by Trypan Blue,PyMT tumor cells,no cell death
same,demethylation of c-Myc promoter (percent CpG methylation),c-Myc promoter [3],increase in demethylation
same,DNMT-3b mRNA level,DNMT-3b,no difference
same,DNA methylation of c-Myc promoter,c-Myc promoter [4],completely demethylated
same,cell survival,BEAS-2B cells,no significant decrease
same,methylation of RASSF1 promoter in lungs,RASSF1 promoter,demethylated
same,CDKN1C mRNA expression level,"[5]; A549, 10 μM (AKB10)",0.1
same,tumor suppressor mRNA expression,"[5]; A549, 10 μM and 50 μM, vs DMSO, all genes but CDKN1C",augmented
same,CDKN1C mRNA expression level,"[5]; A549, 50 μM (AKB50)",0.9

# Reference: US20160199434A1, “COMPOSITIONS AND METHODS FOR MODULATING DNA METHYLATION” (OHIO STATE INNOVATION FOUNDATION, priority 2013, published 2016)
